Data as given in US20190322676A1, “CERAMIDE GALACTOSYLTRANSFERASE INHIBITORS FOR THE TREATMENT OF DISEASE” (BioMarin Pharmaceutical Inc., priority 2016, published 2019).
Where a name gives a salt, the structure may show the parent alone.

What was measured:
Format in all cases: biochemical
[1] = target: T1, human CGT (ceramide galactosyltransferase), CHO/CGT lysate (Homo sapiens, UniProt Q16880); experiment: CGT enzyme assay, LC-MS/MS readout (Table 1 ranges without asterisk); details: LC-MS/MS method (range without asterisk)
T1 construct: Full-length human CGT cDNA was cloned into the BamH1/Xho1 site of pcDNA3.1 (+); expressed in transfected cells; host or cells: Chinese hamster ovary (CHO) cells; lysate prepared with M-PER
T1 sequence (Q16880 21-541): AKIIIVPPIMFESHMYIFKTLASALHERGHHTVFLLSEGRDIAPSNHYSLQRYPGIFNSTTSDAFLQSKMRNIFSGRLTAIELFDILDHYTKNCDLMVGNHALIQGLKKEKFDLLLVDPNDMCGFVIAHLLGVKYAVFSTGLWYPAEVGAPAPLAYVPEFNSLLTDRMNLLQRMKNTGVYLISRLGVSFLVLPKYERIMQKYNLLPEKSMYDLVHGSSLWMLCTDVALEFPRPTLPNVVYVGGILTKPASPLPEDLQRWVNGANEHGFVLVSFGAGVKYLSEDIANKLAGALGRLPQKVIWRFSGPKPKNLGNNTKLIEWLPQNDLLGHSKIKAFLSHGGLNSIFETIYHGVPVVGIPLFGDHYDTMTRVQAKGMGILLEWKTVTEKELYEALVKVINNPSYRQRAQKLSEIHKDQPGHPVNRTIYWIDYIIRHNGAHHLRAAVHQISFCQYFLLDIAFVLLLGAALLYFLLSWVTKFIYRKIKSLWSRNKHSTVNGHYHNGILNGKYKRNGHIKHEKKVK
Description: Full-length human CGT cDNA was cloned into the BamH1/Xho1 site of pcDNA3.1 (+) mammalian expression vector (V90-20, Invitrogen, Carlsbad, Calif.) and the plasmid was transfected into Chinese hamster ovary (CHO) cells. Lysate was prepared using M-PER (Mammalian Protein Extraction Reagent, ThermoFisher Scientific, Grand Island, N.Y.) in the presence of a protease inhibitor cocktail (P8340, Sigma, Saint Louis, Mo.). Each 100 mm dish (100% confluent, approximately 1×10^7 cells) was lysed with 250 μL of M-PER containing protease inhibitors. Protein concentration was determined using a Pierce BCA protein assay kit (ThermoFisher Scientific). Four micrograms of CHO/CGT lysate was incubated with various concentrations of a compound (0.001 μM-50 μM) in 10 mM HEPES (pH 7.2) containing 35 μM dioleoylphosphatidylcholine, 5 mM MgCl2, 5 mM MnCl2, 1% BSA, 15 mM KCl, 1 mM EGTA, 8 mM CHAPS, 10 μM C6-NBD-dihydro-ceramide and 17.5 μM UDP-galactose in a final reaction volume of 20 μL at 37° C. for 1 hour. The final concentration of DMSO was 0.5% in both compound-treated and mock-treated samples. Tween 80 (0.01%) was optionally added to the reaction mixture to help solubilize the compounds. Each individual reaction was diluted with 80 μL of methanol:acetronitrile (1:3) containing 5 μM N-docdecanoyl-NBD-galactosylceramide (internal standard) to stop the reaction. 200 μL H2O:acetonitile (1:1) was added to precipitate the protein. After sufficient mixing, the plates were centrifuged at 2469 g for 38 minutes, 200 μL of supernatant was transferred to a LC/MS 96-deep well plate and a second spin was performed at 2469 g for 10 minutes. The final supernatant was injected in triplicate for RapidFire/MS/MS analysis.
An alternative LC-MS/MS based method was also used. For the LC-MS/MS readout, the CGT assay was identical to the one described above except for the following: […] was used as the CGT enzyme source, C12:0 (2R—OH) ceramide was used as the ceramide substrate and 0.3 μM Cl2 ceramide was used as the internal standard. Tween 80 was not present in the reaction mixture. The final supernatant was injected for LC-MS/MS analysis.
Quantitative analysis using the LC-MS/MS method: The quantitative analysis of C12:0 (2R—OH) ceramide and C12:0 (2R—OH) galactosylceramide by LC-MS/MS was performed on a Shimadzu ultra-fast liquid chromatography (Shimadzu, Japan) coupled with API 4000 mass spectrometer (Applied Biosystems, Concord, Ontario, Canada). Analyst 1.5 software packages (Applied Biosystems) were used to control the LC-MS/MS system, as well as for data acquisition and processing. 10 μL of sample was loaded onto a Luna C18 column (50 mm×2.0 mm, I.D. 3 μm, 100A) (Phenomenex, USA) for chromatographic separation. Mobile phase A consisted of HPLC grade water with 0.1% formic acid (v/v) and mobile phase B consisted of acetonitrile supplemented with 0.1% formic acid (v/v). The separation was achieved using the following gradient program at a flow rate of 0.8 mL/min: the initial mobile phase was 70% B, which was increased in a linear fashion to 95% B in 1.50 min, and then maintained at 95% B until 3.50 min. The mobile phase was then reset to 70% B within 0.01 min, and maintained until 4.50 min. The total run time was 4.50 min. The MS/MS detection was performed in ESI positive mode. The mass transition selected for quantification was m/z 498.5-264.3 for C12:0 (2R—OH) ceramide under the collision energy of 38.8 V, and the mass transition of C12:0 (2R—OH) galactosylceramide was m/z 660.6-264.5 under the collision energy of 51 V. The mass transition of Cl2 ceramide which was used as internal standard was m/z 482.4-264.3 under the collision energy of 33V. Compound IC50 values were calculated using a protocol identical to the one described for the RapidFire method (see Table 1, where data ranges without an asterix correspond to analysis using the LC-MS/MS method).
Using the above CGT enzyme and CGT cellular assays, the compounds of Table 1 were tested. […]

[2] = target: T1, human CGT (ceramide galactosyltransferase), CHO/CGT lysate; experiment: CGT enzyme assay, RapidFire/MS/MS readout (Table 1 ranges with one asterisk *); details: RapidFire method (range with one asterisk *)
In short: (§1)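 Lysate (4 μg) of CHO cells transfected with full-length human CGT incubated 1 h at 37 °C with compound (0.001–50 μM) in pH 7.2 HEPES buffer with 10 μM C6-NBD-dihydro-ceramide, 17.5 μM UDP-galactose, Mg2+/Mn2+, CHAPS, BSA, 0.5% DMSO; ** set also contained 0.01% Tween 80. Product quantified by RapidFire/MS/MS, normalized to internal standard; IC50 from sigmoidal variable-slope fits.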

[3] = target: T1, human CGT (ceramide galactosyltransferase), CHO/CGT lysate; experiment: CGT enzyme assay, RapidFire/MS/MS readout with 0.01% Tween added (Table 1 ranges with two asterisks **); details: CGT enzyme assay, RapidFire/MS/MS method with 0.01% Tween added (range with two asterisks **)
In short: as §1

SMILES	IC50 [1]	IC50 [2]	IC50 [3]
NC1CC2CCC(C1)N2C(=O)[C@H](NS(=O)(=O)c1ccc2cc(OC3CCCC3)ccc2c1)C(F)(F)c1ccc(Br)cc1 (stereo partly drawn) [Compound 5-2, N-((2S)-3-(3-amino-8-azabicyclo[3.2.1]octan-8-yl)-1-(4-bromophenyl)-1,1-difluoro-3-oxopropan-2-yl)-6-(cyclopentyloxy)naphthalene-2-sulfonamide trifluoroacetate]	1 to 10 µM	–	–
CC(C)Oc1ccc2cc(CCS(=O)(=O)NC(C(=O)N3C4CCC3CC(N)C4)C(F)(F)c3ccc(Br)cc3)ccc2c1 (stereo not drawn) [Compound 4, N-(3-(3-amino-8-azabicyclo[3.2.1]octan-8-yl)-1-(4-bromophenyl)-1,1-difluoro-3-oxopropan-2-yl)-2-(6-isopropoxynaphthalen-2-yl)ethanesulfonamide trifluoroacetate]	10 to 30 µM	–	–
NC1CC2CCC(C1)N2C(=O)[C@@H](NS(=O)(=O)c1ccc(OCC2CCCCC2)cc1)C(F)(F)c1ccc(Br)cc1 (stereo partly drawn) [Compound 12-1, N-((2R)-3-(3-amino-8-azabicyclo[3.2.1]octan-8-yl)-1-(4-bromophenyl)-1,1-difluoro-3-oxopropan-2-yl)-4-(cyclohexylmethoxy)benzenesulfonamide trifluoroacetate]	10 to 30 µM	–	–
CCCCCCOc1ccc(S(=O)(=O)N[C@H](C(=O)N2C3CCC2CC(N)C3)C(F)(F)c2ccc(Br)cc2)cc1 (stereo partly drawn) [Compound 23-1, N-((2R)-3-(3-amino-8-azabicyclo[3.2.1]octan-8-yl)-1-(4-bromophenyl)-1,1-difluoro-3-oxopropan-2-yl)-4-(hexyloxy)benzenesulfonamide]	1 to 10 µM	–	–
NC1CC2CCC(C1)N2C(=O)[C@@H](NS(=O)(=O)c1cccc(OCc2ccc(F)cc2)c1)C(F)(F)c1ccc(Br)cc1 (stereo partly drawn) [Compound 17-1, N-((2R)-3-(3-amino-8-azabicyclo[3.2.1]octan-8-yl)-1-(4-bromophenyl)-1,1-difluoro-3-oxopropan-2-yl)-3-((4-fluorobenzyl)oxy)benzenesulfonamide trifluoroacetate]	30 to 100 µM	–	–
NC1CC2CCC(C1)N2C(=O)C(NS(=O)(=O)c1ccc2cc(OC3CCCC3)ccc2c1)C(F)(F)c1ccc(Br)cc1 (stereo not drawn) [Compound 5, N-(3-(3-amino-8-azabicyclo[3.2.1]octan-8-yl)-1-(4-bromophenyl)-1,1-difluoro-3-oxopropan-2-yl)-6-(cyclopentyloxy)naphthalene-2-sulfonamide trifluoroacetate]	1 to 10 µM	–	–
CCCCOc1ccc(S(=O)(=O)N[C@@H](C(=O)N2C3CCC2CC(N)C3)C(F)(F)c2ccc(Br)cc2)cc1 (stereo partly drawn) [Compound 22-2, N-((2S)-3-(3-amino-8-azabicyclo[3.2.1]octan-8-yl)-1-(4-bromophenyl)-1,1-difluoro-3-oxopropan-2-yl)-4-butoxybenzenesulfonamide]	30 to 100 µM	–	–
NC1CC2CCC(C1)N2C(=O)[C@@H](NS(=O)(=O)c1ccc(OCCC2CCCCC2)cc1)C(F)(F)c1ccc(Br)cc1 (stereo partly drawn) [Compound 26-1, N-((2R)-3-(3-amino-8-azabicyclo[3.2.1]octan-8-yl)-1-(4-bromophenyl)-1,1-difluoro-3-oxopropan-2-yl)-4-(2-cyclohexylethoxy)benzenesulfonamide trifluoroacetate]	1 to 10 µM	–	–
CC(C)Oc1ccc2cc(S(=O)(=O)N[C@H](C(=O)N3CCC(N)CC3)C(F)(F)c3ccc(Br)cc3)ccc2c1Br [Compound 119-1, (R)—N-(3-(4-aminopiperidin-1-yl)-1-(4-bromophenyl)-1,1-difluoro-3-oxopropan-2-yl)-5-bromo-6-isopropoxynaphthalene-2-sulfonamide]	1 to 10 µM	–	–
CCC(CC)COc1ccc(S(=O)(=O)N[C@@H](C(=O)N2C3CCC2CC(N)C3)C(F)(F)c2ccc(Br)cc2)cc1 (stereo partly drawn) [Compound 2-2, N-((2S)-3-(3-amino-8-azabicyclo[3.2.1]octan-8-yl)-1-(4-bromophenyl)-1,1-difluoro-3-oxopropan-2-yl)-4-(2-ethylbutoxy)benzenesulfonamide]	30 to 100 µM	–	–
NC1CCN(C(=O)[C@H](NS(=O)(=O)c2ccc(OCC3CCCCC3)cc2)C(F)(F)c2ccc(-c3ccc(Cl)cc3)cc2)CC1 [Compound 96-2, (S)—N-(3-(4-aminopiperidin-1-yl)-1-(4′-chloro-[1,1′-biphenyl]-4-yl)-1,1-difluoro-3-oxopropan-2-yl)-4-(cyclohexylmethoxy) benzenesulfonamide trifluoroacetate]	–	30 to 100 µM	30 to 100 µM
NC1CC2CCC(C1)N2C(=O)[C@H](NS(=O)(=O)c1ccc2cc(OC3CCCC3)ccc2c1)C(F)(F)c1ccc(-c2ccc(Cl)cc2)cc1 (stereo partly drawn) [Compound 48-2, N-((2S)-3-(3-amino-8-azabicyclo[3.2.1]octan-8-yl)-1-(4′-chloro-[1,1′-biphenyl]-4-yl)-1,1-difluoro-3-oxopropan-2-yl)-6-(cyclopentyloxy)naphthalene-2-sulfonamide trifluoroacetate]	–	1 to 10 µM	1 to 10 µM
NC1CCN(C(=O)[C@H](NS(=O)(=O)c2ccc3cc(OC4CCCC4)ccc3c2)C(F)(F)c2ccc(-c3ccc(Cl)cc3)cc2)CC1 [Compound 91-2, (S)—N-(3-(4-aminopiperidin-1-yl)-1-(4′-chloro-[1,1′-biphenyl]-4-yl)-1,1-difluoro-3-oxopropan-2-yl)-6-(cyclopentyloxy)naphthalene-2-sulfonamide trifluoroacetate]	–	1 to 10 µM	1 to 10 µM
NC1CCN(C(=O)[C@@H](NS(=O)(=O)c2ccc(OCC3CCCCC3)cc2)C(F)(F)c2ccc(-c3ccc(Cl)cc3)cc2)CC1 [Compound 96-1, (R)—N-(3-(4-aminopiperidin-1-yl)-1-(4′-chloro-[1,1′-biphenyl]-4-yl)-1,1-difluoro-3-oxopropan-2-yl)-4-(cyclohexylmethoxy)benzenesulfonamide trifluoroacetate]	–	1 to 10 µM	1 to 10 µM
